Target: T1, human CRHR2-alpha (Homo sapiens, UniProt Q13324)
T1 sequence (Q13324 1-411): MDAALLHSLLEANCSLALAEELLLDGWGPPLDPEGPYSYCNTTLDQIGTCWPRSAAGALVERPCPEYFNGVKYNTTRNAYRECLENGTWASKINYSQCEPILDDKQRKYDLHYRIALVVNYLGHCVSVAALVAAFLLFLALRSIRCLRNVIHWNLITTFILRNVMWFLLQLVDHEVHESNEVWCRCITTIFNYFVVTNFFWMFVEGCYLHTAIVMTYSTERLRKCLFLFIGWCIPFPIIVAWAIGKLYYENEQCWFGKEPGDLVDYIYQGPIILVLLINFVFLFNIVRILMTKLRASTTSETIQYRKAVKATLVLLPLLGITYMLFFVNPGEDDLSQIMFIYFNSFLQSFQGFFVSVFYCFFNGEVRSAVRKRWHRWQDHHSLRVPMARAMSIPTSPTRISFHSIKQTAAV
Assay: cAMP functional assay for human CRHR2 (LANCE Ultra cAMP, TR-FRET)
Type: cell-based
Settings: CHO-K1 cells expressing human CRHR2-alpha, agonist human urocortin2 at EC80, cAMP; read-out: IC50 against CRHR2
How it was run: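 IC50 values derive from percent inhibition of EC80 agonist-stimulated cAMP in CHO-K1 transfectants, with 0.5 mM IBMX present; the CRHR2 line was stimulated by human urocortin2 and the CRHR1 line by CRF.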

SMILES | IC50 [µM]
CNc1ccc(-n2c(=O)n(C[C@H]3CC[C@H](NC(=O)c4cc(Cl)cnc4C)CC3)c3ccccc32)nc1 [Example 574, 5-chloro-2-methyl-N-((1r,4r)-4-((3-(5-(methylamino)pyridin-2-yl)-2-oxo-2,3-dihydro-1H-benzo[d]imidazol-1-yl)methyl)cyclohexyl)nicotinamide] | < 0.3
Cn1ccc(-c2ccc(-n3c(=O)n(C[C@H]4CC[C@H](NC(=O)c5cc(Cl)cnc5C(F)(F)F)CC4)c4ccccc43)cn2)n1 [Example 777, 5-chloro-N-((1r,4r)-4-((3-(6-(1-methyl-1H-pyrazol-3-yl)pyridin-3-yl)-2-oxo-2,3-dihydro-1H-benzo[d]imidazol-1-yl)methyl)cyclohexyl)-2-(trifluoromethyl)nicotinamide] | < 0.3
CNc1ccc(-n2c(=O)n(C[C@H]3CC[C@H](NC(=O)c4cc(Cl)cnc4C(F)F)CC3)c3ccc(F)cc32)cn1 [Example 626, 5-chloro-2-(difluoromethyl)-N-((1r,4r)-4-((5-fluoro-3-(6-(methylamino)pyridin-3-yl)-2-oxo-2,3-dihydro-1H-benzo [d]imidazol-1-yl)methyl)cyclohexyl)nicotinamide] | < 0.3
O=C(N[C@H]1CC[C@H](Cn2c(=O)n(-c3ccnc(N4CCNC4=O)c3)c3ccccc32)CC1)c1cc(Cl)cnc1C(F)F [Example 691, 5-chloro-2-(difluoromethyl)-N-((1r,4r)-4-((2-oxo-3-(2-(2-oxoimidazolidin-1-yl)pyridin-4-yl)-2,3-dihydro-1H-benzo [d]imidazol-1-yl)methyl)cyclo-hexyl)nicotinamide] | < 0.3
N#Cc1cccnc1-n1c(=O)n(C[C@H]2CC[C@H](NC(=O)c3cc(Cl)cnc3C(F)F)CC2)c2ccccc21 [Example 375, 5-chloro-N-((1r,4r)-4-((3-(3-cyanopyridin-2-yl)-2-oxo-2,3-dihydro-1H-benzo[d]imidazol-1-yl)methyl)cyclohexyl)-2-(difluoromethyl)nicotinamide] | < 0.3
C[C@H](O)COc1ccc(-n2c(=O)n(C[C@H]3CC[C@H](NC(=O)c4cc(Cl)cnc4C(F)(F)F)CC3)c3ccccc32)cn1 [Example 467, 5-chloro-N-((1S,4r)-4-((3-(6-((S)-2-hydroxypropoxy)pyridin-3-yl)-2-oxo-2,3-dihydro-1H-benzo[d]imidazol-1-yl)methyl)cyclohexyl)-2-(trifluoromethyl)nicotinamide] | < 0.3
Cc1ncc(Cl)cc1C(=O)N[C@H]1CC[C@H](Cn2c(=O)n(-c3ccc4c(c3)c(C)nn4CCO)c3ccccc32)CC1 [Example 230, 5-chloro-N-((1r,4r)-4-((3-(1-(2-hydroxyethyl)-3-methyl-1H-indazol-5-yl)-2-oxo-2,3-dihydro-1H-benzo[d]imidazol-1-yl)methyl)cyclohexyl)-2-methylnicotinamide] | < 0.3
COc1ccc(C#N)c(-n2c(=O)n(C[C@H]3CC[C@H](NC(=O)c4cc(Cl)cnc4C(F)F)CC3)c3cccnc32)c1 [Example 507, 5-chloro-N-((1r,4r)-4-((3-(2-cyano-5-methoxyphenyl)-2-oxo-2,3-dihydro-1H-imidazo [4,5-b]pyridin-1-yl)methyl)cyclohexyl)-2-(difluoromethyl) nicotinamide] | < 0.3
Cc1ncc(Cl)cc1C(=O)N[C@H]1CC[C@H](Cn2c(=O)n(-c3ccc(C(=O)NCc4ccon4)nc3)c3ccccc32)CC1 [Example 176, 5-(3-(((1r,4r)-4-(5-chloro-2-methylnicotinamido)cyclo-hexyl)methyl)-2-oxo-2,3-dihydro-1H-benzo[d]imidazol-1-yl)-N-(isoxazol-3-ylmethyl) picolinamide] | < 0.3
Cn1cc(-c2cc(-n3c(=O)n(C[C@H]4CC[C@H](NC(=O)c5cc(Cl)cnc5C(F)F)CC4)c4ccccc43)ccn2)cn1 [Example 699, 5-chloro-2-(difluoromethyl)-N-((1r,4r)-4-((3-(2-(1-methyl-1H-pyrazol-4-yl)pyridin-4-yl)-2-oxo-2,3-dihydro-1H-benzo [d]imidazol-1-yl)methyl)cyclo-hexyl)nicotinamide] | < 0.3
Cc1ccc(-n2c(=O)n(C[C@H]3CC[C@H](NC(=O)c4cc(Cl)cnc4C(F)F)CC3)c3cccnc32)cc1 [Example 389, 5-chloro-2-(difluoromethyl)-N-((1r,4r)-4-((2-oxo-3-(p-tolyl)-2,3-dihydro-1H-imidazo[4,5-b]pyridin-1-yl)methyl)cyclohexyl)nicotinamide] | < 0.3
Cc1ncc(Cl)cc1C(=O)N[C@H]1CC[C@H](Cn2c(=O)n(-c3ccc(-c4ccnn4C)cc3)c3ccccc32)CC1 [Example 446, 5-chloro-2-methyl-N-((1r,4r)-4-((3-(4-(1-methyl-1H-pyrazol-5-yl)phenyl)-2-oxo-2,3-dihydro-1H-benzo[d]imidazol-1-yl)methyl)cyclo-hexyl)nicotinamide] | < 0.3
Cc1ncc(Cl)cc1C(=O)N[C@H]1CC[C@H](Cn2c(=O)n(-c3cccnc3C(F)(F)F)c3ccccc32)CC1 [Example 318, 5-chloro-2-methyl-N-((1r,4r)-4-((2-oxo-3-(2-(trifluoro-methyl)pyridin-3-yl)-2,3-dihydro-1H-benzo[d]imidazol-1-yl)methyl)cyclohexyl) nicotinamide] | < 0.3
Cc1ncc(Cl)cc1C(=O)N[C@H]1CC[C@H](Cn2c(=O)n(-c3ccc(N4CCC4)nc3)c3ccccc32)CC1 [Example 162, N-((1r,4r)-4-((3-(6-(azetidin-1-yl)pyridin-3-yl)-2-oxo-2,3-dihydro-1H-benzo[d]imidazol-1-yl)methyl)cyclo-hexyl)-5-chloro-2-methyl-nicotinamide] | < 0.3
O=C(N[C@H]1CC[C@H](Cn2c(=O)n(-c3ccc4ncccc4c3)c3ccccc32)CC1)c1cc(Cl)cnc1C(F)(F)F [Example 351, 5-chloro-N-((1r,4r)-4-((2-oxo-3-(quinolin-6-yl)-2,3-dihydro-1H-benzo[d]imidazol-1-yl)methyl)cyclo-hexyl)-2-(trifluoromethyl) nicotinamide] | < 0.3
N#Cc1nccnc1-n1c(=O)n(C[C@H]2CC[C@H](NC(=O)c3cc(Cl)cnc3C(F)F)CC2)c2ccccc21 [Example 369, 5-chloro-N-((1r,4r)-4-((3-(3-cyanopyrazin-2-yl)-2-oxo-2,3-dihydro-1H-benzo[d]imidazol-1-yl)methyl)cyclohexyl)-2-(difluoromethyl)nicotinamide] | < 0.3
O=C(N[C@H]1CC[C@H](Cn2c(=O)n(-c3ccc4ncccc4c3)c3cccnc32)CC1)c1cc(Cl)cnc1C(F)F [Example 361, 5-chloro-2-(difluoromethyl)-N-((1r,4r)-4-((2-oxo-1-(quinolin-6-yl)-1H-imidazo[4,5-b]pyridin-3(2H)-yl)methyl)cyclohexyl) nicotinamide] | < 0.3
Cc1ncc(Cl)cc1C(=O)N[C@H]1CC[C@H](Cn2c(=O)n(-c3ccc(-c4cocn4)cc3)c3ccccc32)CC1 [Example 635, 5-chloro-2-methyl-N-((1r,4r)-4-((3-(4-(oxazol-4-yl)phenyl)-2-oxo-2,3-dihydro-1H-benzo [d]imidazol-1-yl)methyl)cyclo-hexyl)nicotinamide] | < 0.3
Cc1ncc(Cl)cc1C(=O)N[C@H]1CC[C@H](Cn2c(=O)n(CC(=O)c3ccccc3)c3ccccc32)CC1 [Example 5, 5-chloro-2-methyl-N-((1r,4r)-4-((2-oxo-3-(2-oxo-2-phenylethyl)-2,3-dihydro-1H-benzo[d]imidazol-1-yl)methyl)cyclohexyl)nicotinamide] | < 0.3
